This passage reports solubility and residual rate results from patent US8222422B2, “Crystal of benzimidazole compound” (Takeda Pharmaceutical Company Limited, priority 2008, dated 2012).

The structures appear in SMILES notation. ≈ marks a conversion by molar mass, not a printed value.

Holding throughout (format): physicochemical
A short description of data set [1]: Solubility Test, aqueous solution with pH 9.2. Particulars: aqueous buffer, thermodynamic from solid, 10.75 mg almost dissolved when 13.5 mL was added. Here is the method:
To the crystals (10.75 mg) obtained in Example 6 was gradually added dropwise an aqueous solution with pH 9.2. The crystals were almost dissolved at the time point when 13.5 mL was added (solubility: 0.80 mg/mL).

The nature of data set [2]: Stability Test (residual rate of the crystal after preservation, by HPLC). As to conditions: crystals in a brown glass bottle, preserved at 40° C. for 2 weeks. Here is the method:
Residual rate was measured by HPLC (YMC-Pack AQ-302 ODS 4.6 mm i.d.×150 mm, temperature: about 25° C., mobile phase: (A) water (B) acetonitrile:water:triethylamine=160:40:1, gradient program, detection wavelength: 285 nm).

Data set [3] can be described thus: Solubility Test, aqueous solution with pH 6.9. As to conditions: aqueous buffer, thermodynamic from solid, 8.87 mg almost dissolved when 35 mL was added. The procedure:
To the crystals (8.87 mg) obtained in Example 6 was gradually added dropwise an aqueous solution with pH 6.9.

For `Cc1c(OCC(F)(F)F)ccnc1C[S@@+]([O-])c1nc2ccccc2[nH]1` [Example 6, (R)-2-[[[3-methyl-4-(2,2,2-trifluoroethoxy)-2-pyridyl]methyl]sulfinyl]benzimidazole], the values for the solubility in data set [1] and in data set [3] were 800 µg/mL (≈ 2170 µM) and 250 µg/mL (≈ 677 µM), respectively. This compound also had a residual rate in data set [2] of 100.7%.
